Laboratory results taken from US20230085307A1, “PYRIDAZINONE COMPOUND AND HERBICIDE” (NISSAN CHEMICAL CORPORATION, priority 2019, published 2023).

Legend:
southern crabgrass = assay: Test Example 4: herbicidal effect by soil treatment (Table 19, symbol F); assay type: in vivo, southern crabgrass (Digitaria ciliaris)
Procedure, shortened: (§1)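 Step 1: sow seeds in sterilized diluvial soil, cover ~1.5 cm. Step 2: spray diluted emulsion onto soil surface at predetermined rate. Step 3: greenhouse, 25–30° C, three weeks. Step 4: grade effect on each plant by earlier criteria.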

Italian ryegrass [1] = assay: Test Example 4: herbicidal effect by soil treatment (Table 19, symbol K); assay type: in vivo, Italian ryegrass (Lolium multiflorum)
Procedure, shortened: as §1

wild oat [2] = assay: Test Example 5: herbicidal effect by foliage application, plastic box (Table 20, symbol I); assay type: in vivo, wild oat (Avena fatua); conditions: foliage application
Procedure, shortened: (§2)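 Foliar spray test: emulsion formulation diluted in water to a set application rate, sprayed onto 14-day-old plants raised in diluvial soil at 25° C to 30° C under glass. Both herbicidal effect and crop effect rated visually three weeks later.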

redroot pigweed = assay: Test Example 5: herbicidal effect by foliage application, plastic box (Table 20, symbol N); assay type: in vivo, redroot pigweed (Amaranthus retroflexus); conditions: foliage application
Procedure, shortened: as §2

late watergrass [3] = assay: Test Example 1: herbicidal activity, application before weed generation under submerged conditions (Table 16, symbol A); assay type: in vivo, late watergrass (Echinochloa oryzicola); conditions: 320 g/ha applied herbicide
Procedure, shortened: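 Submerged Wagner pots (alluvial soil, 4 cm water) sown with weed seeds and planted with 2.5-leaf rice seedlings; emulsifiable concentrate diluted in water applied to water surface on sowing day. Held in greenhouse at 25-30 °C; injury scored 0-5 by herbicidal rate after three weeks.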

lambsquarters [4] = assay: Test Example 4: herbicidal effect by soil treatment (Table 19, symbol O); assay type: in vivo, lambsquarters (Chenopodium album); conditions: amount of applied herbicide 320 g/ha
Procedure, shortened: as §1

Chinese sprangletop = assay: Test Example 3: herbicidal effect by foliage application, Wagner pot (Table 18, symbol D); assay type: in vivo, chinese sprangletop (Leptochloa chinensis); conditions: for herbicidal effect on D (Chinese sprangletop), rating 0-5: 320 g/ha
Procedure, shortened: (§3)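 Plants were sown in alluvial soil held under 0.1–0.5 cm standing water and grown 14 days in a greenhouse at 25–30 °C. An emulsifiable formulation, water-diluted to the set dose, was then sprayed onto the foliage, and effects were scored three weeks later using previously defined criteria.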

chickweed [5] = assay: Test Example 4: herbicidal effect by soil treatment (Table 19, symbol P); assay type: in vivo, common chickweed (Stellaria media)
Procedure, shortened: as §1

Italian ryegrass [6] = assay: Test Example 5: herbicidal effect by foliage application, plastic box (Table 20, symbol K); assay type: in vivo, Italian ryegrass (Lolium multiflorum); conditions: foliage application
Procedure, shortened: as §2

barnyard grass = assay: Test Example 5: herbicidal effect by foliage application, plastic box (Table 20, symbol H); assay type: in vivo, barnyard grass (Echinochloa crus-galli); conditions: foliage application
Procedure, shortened: as §2

chickweed [7] = assay: Test Example 5: herbicidal effect by foliage application, plastic box (Table 20, symbol P); assay type: in vivo, common chickweed (Stellaria media); conditions: foliage application
Procedure, shortened: as §2

lambsquarters [8] = assay: Test Example 5: herbicidal effect by foliage application, plastic box (Table 20, symbol O); assay type: in vivo, lambsquarters (Chenopodium album); conditions: foliage application
Procedure, shortened: as §2

wild oat [9] = assay: Test Example 4: herbicidal effect by soil treatment (Table 19, symbol I); assay type: in vivo, wild oat (Avena fatua)
Procedure, shortened: as §1

rice flat sedge = assay: Test Example 3: herbicidal effect by foliage application, Wagner pot (Table 18, symbol E); assay type: in vivo, rice flat sedge (Cyperus iria); conditions: for herbicidal effect on E (rice flat sedge), rating 0-5: 320 g/ha
Procedure, shortened: as §3

late watergrass [10] = assay: Test Example 2: herbicidal activity, application during weed generation under submerged conditions (Table 17, symbol A); assay type: in vivo, late watergrass (Echinochloa oryzicola); conditions: AAH 320 g/ha; application during weed generation, submerged conditions
Procedure, shortened: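 Effect on each weed is rated three weeks post-treatment, using the same scoring criteria as the preceding test. Plants grow from mixed-sown seed in flooded alluvial soil (4 cm water) at 25° C. to 30° C., and are treated at one to two leaves with diluted emulsion dropped onto the water.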

windgrass = assay: Test Example 4: herbicidal effect by soil treatment (Table 19, symbol L); assay type: in vivo, windgrass (Apera spica-venti)
Procedure, shortened: as §1

[11] = amount of applied herbicide 320 g/ha
[12] = 320 g/ha, three weeks after application
[13] = AAH 320 g/ha, three weeks after application
[14] = 320 g/ha, evaluated three weeks after application

Row | Compound | herbicidal effect rating, F: southern crabgrass (southern crabgrass; [11]) | herbicidal effect rating, K: Italian ryegrass (Italian ryegrass [1]; [11]) | herbicidal effect grade, I: wild oat (wild oat [2]; [12]) | herbicidal effect grade, N: redroot pigweed (redroot pigweed; [12]) | Herbicidal effect on A: late watergrass (grade 0-5) (late watergrass [3]) | herbicidal effect rating, O: lambsquarters (lambsquarters [4]) | herbicidal effect on D (Chinese sprangletop), rating 0-5 (Chinese sprangletop) | herbicidal effect rating, P: chickweed (chickweed [5]; [11]) | herbicidal effect grade, K: Italian ryegrass (Italian ryegrass [6]; [12]) | herbicidal effect grade, H: barnyard grass (barnyard grass; [12]) | herbicidal effect grade, P: chickweed (chickweed [7]; [12]) | herbicidal effect grade, O: lambsquarters (lambsquarters [8]; [12]) | herbicidal effect rating, I: wild oat (wild oat [9]; [11]) | herbicidal effect on E (rice flat sedge), rating 0-5 (rice flat sedge) | herbicidal effect rating, A: late watergrass (late watergrass [10]) | herbicidal effect rating, L: windgrass (windgrass; [11]) | also measured
1 | CCCOc1ccc(-c2sc3ccccc3c2-c2c(O)c(C)nn(C)c2=O)cc1 [1-019] | 0 (Herbicidal rate of 5% or less (almost no effect)) | 3 (Herbicidal rate of 40% or more and less than 70%) | 3 (Herbicidal rate of 40% or more and less than 70%) | 5 (Herbicidal rate of 90% or more (almost completely withered)) | 5 (Herbicidal rate of 90% or more (almost completely withered)) | 4 (Herbicidal rate of 70% or more and less than 90%) | 4 (Herbicidal rate of 70% or more and less than 90%) | 5 (Herbicidal rate of 90% or more (almost completely withered)) | 4 (Herbicidal rate of 70% or more and less than 90%) | 5 (Herbicidal rate of 90% or more (almost completely withered)) | 5 (Herbicidal rate of 90% or more (almost completely withered)) | 5 (Herbicidal rate of 90% or more (almost completely withered)) | 0 (Herbicidal rate of 5% or less (almost no effect)) | 5 (Herbicidal rate of 90% or more (almost completely withered)) | 3 (Herbicidal rate of 40% or more and less than 70%) | 0 (Herbicidal rate of 5% or less (almost no effect)) | 
2 | Cc1nn(C)c(=O)c(-c2c(-c3ccc(OC(C)C)cc3)sc3ccccc23)c1O [1-020] | 0 (Herbicidal rate of 5% or less (almost no effect)) | 3 (Herbicidal rate of 40% or more and less than 70%) | 0 (Herbicidal rate of 5% or less (almost no effect)) | 3 (Herbicidal rate of 40% or more and less than 70%) | 4 (Herbicidal rate of 70% or more and less than 90%) | 4 (Herbicidal rate of 70% or more and less than 90%) | 1 (Herbicidal rate of 5% or more and less than 20%) | 3 (Herbicidal rate of 40% or more and less than 70%) | 3 (Herbicidal rate of 40% or more and less than 70%) | 4 (Herbicidal rate of 70% or more and less than 90%) | 5 (Herbicidal rate of 90% or more (almost completely withered)) | 2 (Herbicidal rate of 20% or more and less than 40%) | 0 (Herbicidal rate of 5% or less (almost no effect)) | 5 (Herbicidal rate of 90% or more (almost completely withered)) | 2 (Herbicidal rate of 20% or more and less than 40%) | 0 (Herbicidal rate of 5% or less (almost no effect)) | 
3 | Cc1nn(C)c(=O)c(-c2c(-c3ccc4c(c3)OCCO4)sc3ccccc23)c1O [1-089] | 3 (Herbicidal rate of 40% or more and less than 70%) | 0 (Herbicidal rate of 5% or less (almost no effect)) |  |  | 5 (Herbicidal rate of 90% or more (almost completely withered)) | 5 (Herbicidal rate of 90% or more (almost completely withered)) | 0 (Herbicidal rate of 5% or less (almost no effect)) |  |  |  |  |  | 0 (Herbicidal rate of 5% or less (almost no effect)) | 5 (Herbicidal rate of 90% or more (almost completely withered)) | 5 (Herbicidal rate of 90% or more (almost completely withered)) | 0 (Herbicidal rate of 5% or less (almost no effect)) | I: wild oat, herbicidal effect (wild oat [2]; [13]): 0 (Herbicidal rate of 5% or less (almost no effect)); N: redroot pigweed, herbicidal effect (redroot pigweed; [13]): 1 (Herbicidal rate of 5% or more and less than 20%); K: Italian ryegrass, herbicidal effect (Italian ryegrass [6]; [13]): 5 (Herbicidal rate of 90% or more (almost completely withered)); H: barnyard grass, herbicidal effect (barnyard grass; [13]): 5 (Herbicidal rate of 90% or more (almost completely withered)); P: chickweed, herbicidal effect (chickweed [7]; [13]): 5 (Herbicidal rate of 90% or more (almost completely withered)); O: lambsquarters, herbicidal effect (lambsquarters [8]; [13]): 3 (Herbicidal rate of 40% or more and less than 70%)
4 | C#CCOc1ccc(-c2sc3ccc(F)cc3c2-c2c(OCOCCOC)c(C)nn(C)c2=O)cc1 [2-055] |  |  |  |  | 0 (Herbicidal rate of 5% or less (almost no effect)) |  | 5 (Herbicidal rate of 90% or more (almost completely withered)) |  |  |  |  |  |  | 4 (Herbicidal rate of 70% or more and less than 90%) | 0 (Herbicidal rate of 5% or less (almost no effect)) |  | herbicidal effect rating, F: southern crabgrass (southern crabgrass; 320 g/ha): 1 (Herbicidal rate of 5% or more and less than 20%); herbicidal effect rating, K: Italian ryegrass (Italian ryegrass [1]; 320 g/ha): 0 (Herbicidal rate of 5% or less (almost no effect)); herbicidal effect on I: wild oat (wild oat [2]; [14]): 1 (Herbicidal rate of 5% or more and less than 20%); herbicidal effect on N: redroot pigweed (redroot pigweed; [14]): 5 (Herbicidal rate of 90% or more (almost completely withered)); herbicidal effect rating, P: chickweed (chickweed [5]; 320 g/ha): 3 (Herbicidal rate of 40% or more and less than 70%); herbicidal effect on K: Italian ryegrass (Italian ryegrass [6]; [14]): 3 (Herbicidal rate of 40% or more and less than 70%); herbicidal effect on H: barnyard grass (barnyard grass; [14]): 4 (Herbicidal rate of 70% or more and less than 90%); herbicidal effect on P: chickweed (chickweed [7]; [14]): 5 (Herbicidal rate of 90% or more (almost completely withered)); herbicidal effect on O: lambsquarters (lambsquarters [8]; [14]): 5 (Herbicidal rate of 90% or more (almost completely withered)); herbicidal effect rating, I: wild oat (wild oat [9]; 320 g/ha): 0 (Herbicidal rate of 5% or less (almost no effect)); herbicidal effect rating, L: windgrass (windgrass; 320 g/ha): 0 (Herbicidal rate of 5% or less (almost no effect))
5 | Cc1nn(C)c(=O)c(-c2c(-c3cccc(OC(C)C)c3)sc3ccc(F)cc23)c1O [2-215] |  |  |  |  | 3 (Herbicidal rate of 40% or more and less than 70%) |  |  |  |  |  |  |  |  |  | 2 (Herbicidal rate of 20% or more and less than 40%) |  | F: southern crabgrass, herbicidal effect rating (southern crabgrass; [11]): 5 (Herbicidal rate of 90% or more (almost completely withered)); K: Italian ryegrass, herbicidal effect rating (Italian ryegrass [1]; [11]): 3 (Herbicidal rate of 40% or more and less than 70%); herbicidal effect on I: wild oat (criteria 0-5) (wild oat [2]; [14]): 0 (Herbicidal rate of 5% or less (almost no effect)); herbicidal effect on N: redroot pigweed (criteria 0-5) (redroot pigweed; [14]): 5 (Herbicidal rate of 90% or more (almost completely withered)); O: lambsquarters, herbicidal effect rating (lambsquarters [4]): 3 (Herbicidal rate of 40% or more and less than 70%); herbicidal effect on D: Chinese sprangletop (Chinese sprangletop; [11]): 5 (Herbicidal rate of 90% or more (almost completely withered)); herbicidal effect on K: Italian ryegrass (criteria 0-5) (Italian ryegrass [6]; [14]): 5 (Herbicidal rate of 90% or more (almost completely withered)); herbicidal effect on H: barnyard grass (criteria 0-5) (barnyard grass; [14]): 5 (Herbicidal rate of 90% or more (almost completely withered)); herbicidal effect on P: chickweed (criteria 0-5) (chickweed [7]; [14]): 5 (Herbicidal rate of 90% or more (almost completely withered)); herbicidal effect on O: lambsquarters (criteria 0-5) (lambsquarters [8]; [14]): 3 (Herbicidal rate of 40% or more and less than 70%); I: wild oat, herbicidal effect rating (wild oat [9]; [11]): 0 (Herbicidal rate of 5% or less (almost no effect)); herbicidal effect on E: rice flat sedge (rice flat sedge; [11]): 4 (Herbicidal rate of 70% or more and less than 90%); L: windgrass, herbicidal effect rating (windgrass; [11]): 0 (Herbicidal rate of 5% or less (almost no effect))
